Measurements published in patent US8129547B2, “Anticoagulation of human blood ex vivo” (priority 2006, dated 2012).
Where a name gives a salt, the structure may show the parent alone.

How the values were obtained:
[1] = molecular target: T1, Factor VIIa (Homo sapiens, UniProt P08709); assay: Determination of Ki values, chromogenic substrate, Dixon evaluation: Factor VIIa; assay type: biochemical; settings: 25° C., tris buffer pH 8.0, substrate CH3SO2-D-phe-Gly-Arg-pNA
T1 construct: purchased Haemochrom Diagnostica GmbH (Essen, D)
T1 sequence (P08709 213-466 limits assumed): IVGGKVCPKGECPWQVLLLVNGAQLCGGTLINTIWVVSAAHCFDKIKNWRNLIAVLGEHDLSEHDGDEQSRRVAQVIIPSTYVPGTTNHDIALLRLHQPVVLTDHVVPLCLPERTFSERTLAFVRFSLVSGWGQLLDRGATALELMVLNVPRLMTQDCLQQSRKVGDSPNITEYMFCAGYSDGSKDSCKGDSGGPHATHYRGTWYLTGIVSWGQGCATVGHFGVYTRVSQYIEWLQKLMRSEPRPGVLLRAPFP
T1 sequence (P08709 61-212 partner limits assumed): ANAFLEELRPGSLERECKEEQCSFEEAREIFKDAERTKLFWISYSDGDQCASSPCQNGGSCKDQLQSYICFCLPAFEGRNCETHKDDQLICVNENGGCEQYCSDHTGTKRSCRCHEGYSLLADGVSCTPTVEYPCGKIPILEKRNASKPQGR
Excerpt: (§1) The inhibitors used here are the commercially available exemplary inhibitors Pefabloc tPA/Xa (2,7-bis(4-amidinobenzylidene)-cyclopeptanone-(1), Pentapharm Ltd. Basel, Switzerland), CJ-FXa (benzylsulphonyl-D-arginyl-glycyl-4-amidinobenzylamide, Haemochrom GmbH, Essen, Germany) and CJ-PK (benzylsulphonyl-D-seryl-carbobenzoxylsyl-4-amidinobenzylamide, Haemochrom GmbH, Essen, Germany). Research samples were available of DX-9065a ((+)-(2S)-2-[4-[[3S)-1-acetimidoyl-3-pyrrodinyl]oxy]phenyl]-3-[7-amidino-2-naphthyl]propanic acid, Daiichi Pharmaceutical Company Ltd., Tokyo, Japan), and Otamixaban (2-(R)-(3-carbamimidoylbenyzyl)-3-(R)-[4-(1-oxypyridin-4-yl)benzoylamino]-butyric acid-methylester, Sanofi-Aventis GmbH, Frankfurt, Germany), both of which are undergoing clinical tests. In order to examine the inhibitory action of these exemplarily used inhibitors on the blood coagulation factors plasma-kallikrein, VIIa, Xa, XIa and XIIa, the Ki values of the respective enzyme-inhibitor complexes were determined.
(§2) The enzymes were produced by Haemochrom Diagnostica GmbH (Essen, D) and were dissolved in 0.154 mol/l NaCl. The substrates (Pentapharm AG, Basel, CH) were dissolved in H2O and the inhibitor was dissolved in the above-mentioned tris buffer. The following substrates were used for the individual enzymes:
(§3) 200 μl of inhibitor solution were mixed with 25 μl of substrate for the determination and the reaction was started by the addition of 50 μl of enzyme. After a reaction time of 3-5 mins. 25 μl of acetic acid (50%) were added and the extinction was measured at 405 nm with a microplate reader (iEMS Reader MF 12401, Labsystems, Helsinki, Finland). The evaluation was carried out graphically according to Dixon (Biochem. J., 55, 170, 1953).
(§4) The enzymes were produced by Haemochrom Diagnostica GmbH (Essen, D), and only thrombin was manufactured in our own laboratory according to Walsmann (Pharmazie 23, 401-402, 1968). All the enzymes were dissolved in 0.154 mol/l NaCl. The substrates (Pentapharm AG, Basel, CH) were dissolved in H2O and the inhibitor was dissolved in the above-mentioned tris buffer. The following substrates were used for the individual enzymes:
as §3, with “1401,” for “12401,”

[2] = molecular target: T2, Factor XIa (Homo sapiens, UniProt P03951); assay: Determination of Ki values, chromogenic substrate, Dixon evaluation: Factor XIa; assay type: biochemical; settings: 25° C., tris buffer pH 8.0, substrate H-D-Lys(Cbo)-Pro-Arg-pNA
T2 construct: purchased Haemochrom Diagnostica GmbH (Essen, D)
T2 sequence (P03951 388-625 limits assumed): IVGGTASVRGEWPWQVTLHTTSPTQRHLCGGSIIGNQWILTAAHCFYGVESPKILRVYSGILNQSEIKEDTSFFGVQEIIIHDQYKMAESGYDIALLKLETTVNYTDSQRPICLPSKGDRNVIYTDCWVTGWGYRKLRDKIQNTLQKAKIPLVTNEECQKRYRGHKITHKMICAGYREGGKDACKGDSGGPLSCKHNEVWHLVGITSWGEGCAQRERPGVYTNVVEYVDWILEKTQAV
T2 sequence (P03951 19-387 partner limits assumed): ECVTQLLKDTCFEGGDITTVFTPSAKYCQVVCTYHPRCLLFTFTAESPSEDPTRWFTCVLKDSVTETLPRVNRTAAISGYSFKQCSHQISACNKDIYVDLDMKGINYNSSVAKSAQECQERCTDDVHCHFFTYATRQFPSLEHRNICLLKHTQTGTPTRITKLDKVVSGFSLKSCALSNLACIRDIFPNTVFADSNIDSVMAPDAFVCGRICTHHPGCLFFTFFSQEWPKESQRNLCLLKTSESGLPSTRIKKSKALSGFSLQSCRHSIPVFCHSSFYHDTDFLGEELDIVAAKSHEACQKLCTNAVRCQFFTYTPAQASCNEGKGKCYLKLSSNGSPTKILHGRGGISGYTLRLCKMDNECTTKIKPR
Excerpt: as §1, §2, §3, §4
as §3, with “1401,” for “12401,”

[3] = molecular target: T3, Factor XIIa (Homo sapiens, UniProt P00748); assay: Determination of Ki values, chromogenic substrate, Dixon evaluation: Factor XIIa; assay type: biochemical; settings: 25° C., tris buffer pH 8.0, substrate H-D-HHT-Gly-Arg-pNA
T3 construct: purchased Haemochrom Diagnostica GmbH (Essen, D)
T3 sequence (P00748 373-615 limits assumed): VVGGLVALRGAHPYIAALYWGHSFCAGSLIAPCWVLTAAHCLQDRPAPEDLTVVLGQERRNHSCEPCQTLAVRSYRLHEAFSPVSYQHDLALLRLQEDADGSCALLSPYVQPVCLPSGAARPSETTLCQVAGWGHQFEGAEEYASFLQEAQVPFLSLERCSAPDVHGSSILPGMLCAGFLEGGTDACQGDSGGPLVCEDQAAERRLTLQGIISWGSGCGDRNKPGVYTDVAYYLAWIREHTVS
Excerpt: as §1, §2, §3, §4
as §3, with “1401,” for “12401,”

[4] = molecular target: T4, Factor Xa (Homo sapiens, UniProt P00742); assay: Determination of Ki values, chromogenic substrate, Dixon evaluation: Factor Xa; assay type: biochemical; settings: 25° C., tris buffer pH 8.0, substrate CH3OCO-D-Cha-Gly-Arg-pNA
T4 construct: purchased Haemochrom Diagnostica GmbH (Essen, D)
T4 sequence (P00742 235-488 limits assumed): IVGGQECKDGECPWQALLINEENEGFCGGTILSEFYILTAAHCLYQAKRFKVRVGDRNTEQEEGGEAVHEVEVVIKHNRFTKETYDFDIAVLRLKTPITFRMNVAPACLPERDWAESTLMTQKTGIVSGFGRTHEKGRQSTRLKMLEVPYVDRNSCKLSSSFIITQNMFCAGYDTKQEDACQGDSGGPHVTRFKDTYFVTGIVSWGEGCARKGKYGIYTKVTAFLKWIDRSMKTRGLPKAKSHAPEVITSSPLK
T4 sequence (P00742 41-179 partner limits assumed): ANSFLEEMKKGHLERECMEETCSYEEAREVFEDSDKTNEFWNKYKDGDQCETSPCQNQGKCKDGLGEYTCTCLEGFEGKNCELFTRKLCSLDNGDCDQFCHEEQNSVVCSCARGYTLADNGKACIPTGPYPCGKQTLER

[5] = molecular target: T5, Plasma-kallikrein (Homo sapiens, UniProt P03952); assay: Determination of Ki values, chromogenic substrate, Dixon evaluation: plasma-kallikrein; assay type: biochemical; settings: 25° C., tris buffer pH 8.0, substrate Bz-Pro-Phe-Arg-pNA; read-out: Ki PK (plasma-kallikrein)
T5 construct: purchased Haemochrom Diagnostica GmbH (Essen, D)
T5 sequence (P03952 391-638 limits assumed): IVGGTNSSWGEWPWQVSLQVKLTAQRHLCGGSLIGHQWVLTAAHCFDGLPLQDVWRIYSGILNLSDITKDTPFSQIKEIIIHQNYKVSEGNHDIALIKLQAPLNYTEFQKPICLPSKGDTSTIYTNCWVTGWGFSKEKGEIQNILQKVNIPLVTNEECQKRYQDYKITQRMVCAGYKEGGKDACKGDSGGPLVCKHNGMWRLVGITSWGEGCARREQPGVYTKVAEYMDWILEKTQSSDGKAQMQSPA
T5 sequence (P03952 20-390 partner limits assumed): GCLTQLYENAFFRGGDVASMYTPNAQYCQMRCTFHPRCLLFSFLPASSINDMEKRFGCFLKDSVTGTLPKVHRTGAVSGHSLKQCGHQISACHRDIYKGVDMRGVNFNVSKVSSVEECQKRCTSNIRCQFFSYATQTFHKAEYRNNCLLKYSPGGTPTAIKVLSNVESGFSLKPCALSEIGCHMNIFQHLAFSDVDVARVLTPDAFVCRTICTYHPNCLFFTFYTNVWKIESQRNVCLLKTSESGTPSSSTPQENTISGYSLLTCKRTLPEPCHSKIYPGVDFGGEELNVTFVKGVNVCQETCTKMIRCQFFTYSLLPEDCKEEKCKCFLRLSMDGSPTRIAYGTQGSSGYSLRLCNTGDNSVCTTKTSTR
Excerpt: In a particularly preferred embodiment the compound according to Formula (I) inhibits not only the blood coagulation factor XA but also thrombin and/or plasma kallikrein. […] Here too the Ki value stands for the dissociation constant of the respective enzyme-inhibitor complex. The determination of the Ki values of the inhibitors vis-a-vis thrombin and plasma kallikrein is preferably carried out in a similar manner to the determination, described above, of the Ki values of the inhibitors vis-a-vis the coagulation factor Xa, but in this case CH3SO2-D-HHT-gly-arg-pNA (with HHT=hexahydrothyrosin, and pNA=para-nitroaniline; sold under the commercial name Pefachrome tPA) are used as substrates in the case of thrombin and bz-pro-phe-arg-pNA (with bz=[…], and pNA=para-nitroaniline; sold under the commercial name Chromozym PK) in the case of plasma-kallikrein.
as §1, §2, §3, §4
as §3, with “1401,” for “12401,”

[6] = system: human vein blood; assay: Storage of human vein blood after anticoagulation with inhibitor (F1+2 immunoassay)
Method: In the sense of the invention anticoagulation means that the re-formation of thrombin is inhibited in the sampled blood. According to the invention thrombin re-formation is inhibited when no more than 1 nM of thrombin is re-formed in the sampled blood. As described above, the activation of prothrombin to thrombin represents an essential step in the blood coagulation cascade. In this case the prothrombin fragment 1+2 (F1+2) is released in equivalent quantities. It is therefore possible to quantify the thrombin actually formed by determining the fragment produced, thus enabling the prothrombin fragment F1+2 to be used as an indirect marker of an activation of prothrombin to thrombin. The concentration of the prothrombin fragment F1+2 formed may be determined immunologically, for example, with commercial enzyme immunoassays (for example Enzygnost F1+2 micro, Dade Behring GmbH, Marburg).
According to the invention anticoagulation therefore means that no more than 1 nM of prothrombin fragment F1+2 is newly formed in the blood after its sampling. […] Without suitable treatment of the blood to prevent coagulation there is an increase in the concentration of the prothrombin fragment F1+2 in this example to well over 1.3 nM, within a few minutes, due to the plasmatic coagulation, i.e. the blood coagulates.
In this experiment it was determined how long human vein blood can be stored without the formation of thrombin or activation of thrombocytes.
For this purpose blood (9 parts) sampled from a patient was mixed with inhibitor solution (0.05 mM, 0.5 mM or 5 mM in physiological NaCl solution; 1 part). Some of the blood was stored at 25° C., the remainder in the refrigerator at 4° C. The quantity of thrombin formed was determined immunologically during storage based on the formation of the prothrombin fragment F1+2 (Enzygnost F1+2 micro, Dade Behring GmbH, Marburg). […] In this case it is irrelevant whether the blood samples were kept at room temperature (approx. 25° C.) or at 4° C.
For this purpose blood (9 parts) sampled from a patient was mixed with inhibitor solution (0.05 mM, 0.5 mM or 5 mM in physiological NaCl solution; 1 part) and stored at room temperature (about 22±2° C.). The quantity of thrombin formed was determined immunologically during storage based on the formation of the prothrombin fragment F1+2 (Enzygnost F1+2 micro, Dade Behring GmbH, Marburg). It was shown that BAPA′ is capable of keeping anticoagulated blood uncoagulated at a concentration in the blood of 500 μM or 50 μM for more than 48 hours (Table 4). At a concentration of 5 μM BAPA′ prevents coagulation for more than 8 hours.

[7] = system: thrombocytes; assay: Induced aggregation of thrombocytes (Born in PRP, impedance full blood aggregometry) after anticoagulation, Example 4; assay type: cell-based, human; settings: 24 hours after sampling; ADP, collagen, arachidonic acid
Method: (§5) For this purpose blood was taken within 1 hour from 12 healthy subjects. 1 aliquot of each of the 12 blood samples was anticoagulated with citrate and 1 other aliquot of the 12 blood samples was anticoagulated with a direct inhibitor of the blood coagulation factor Xa. For this purpose 9 parts of blood were mixed with 1 part of citrate (0.106 mol/l) or 1 part of inhibitor solution in a suitable concentration. Platelet-rich plasma (PRP) was manufactured by centrifuging at 164×g over 10 minutes. The thrombocytes in PRP were activated by induced aggregation according to Born with 5 μmols/l of ADP, 2 μg/ml of collagen and 0.5 mmol/l of arachidonic acid. Impedance full blood aggregometry was carried out with the Multiplate aggregometer and with 6.5 μmols/l of ADP, 3.2 μg/ml of collagen and 0.5 mmol/l of arachidonic acid. The analyses were conducted 1, 2, 3, 4, 5, 10 and 24 hours after blood sampling.

[8] = system: thrombocytes; assay: Thrombocyte propagation on plastic object carriers, Example 4; assay type: cell-based, human; settings: PRP, 24 hours after blood sampling
Method: as §5
On the contrary, less than 10% of the thrombocytes in RPR anticoagulated with citrate were still propagated 24 hours after blood sampling.

[9] = system: thrombin formation; assay: Inhibition of thrombin formation (prothrombin fragment F1+2) in hirudin-anticoagulated plasma after activation by kaolin; assay type: biochemical, human; settings: inhibitor 100 μM, 37° C.
Method: In this example thrombin formation was activated in plasma anticoagulated with hirudin by the addition of kaolin and the ability of the inhibitors to inhibit thrombin formation was examined.
Blood sampled from a patient was initially anticoagulated by means of the thrombin inhibitor hirudin. For this purpose 9 parts of blood were mixed with 1 part of hirudin solution (recombinant hirudin HBW 023, Hoechst, Frankfurt, 2000 E/ml of physiological NaCl solution), then centrifuged for 10 minutes at 1300 revolutions per minute (rpm). 900 μl of the plasma anticoagulated with hirudin, present in excess, were mixed in polypropylene tubes with 50 μl of inhibitor solution or 0.9% NaCl solution and 50 μl kaolin suspension (from APTT-Test from Roche Diagnostics, diluted 1:250 before use with physiological NaCl solution), and incubated at 37° C. with light shaking. In this case kaolin acts as a non-physiological surface which activates the blood coagulation thereby finally stimulating thrombin formation. At certain times the quantity of the thrombin formed was determined immunologically on the basis of the formation of the prothrombin fragment F1+2 (Enzygnost F1+2 micro, Dade Behring GmbH, Marburg). This determination is based on an enzyme immunoassay according to the sandwich principle. For this purpose aliquot volumes (600 μl) were anticoagulated at certain times with 0.1 M EDTA (40 μl) and kept at −20° C. To determine the concentration of the prothrombin fragment F1+2 50 μl of plasma (if necessary diluted with PBS, phosphate-buffered saline) were incubated with monoclonal antibodies against the human prothrombin fragment F1+2, which were fixed on a microtitre plate included in the test kit. After a washing stage with PBS, which was used to remove sample material not bound by the antibodies, antibodies conjugated with peroxidase were incubated against human prothrombin binding to the free F1+2 determinants. […] This was then determined photometrically at a wavelength of 492 nm. […]

[10] = 25° C., concentration in the blood 50 μM
[11] = 25° C., concentration in the blood 500 μM

Compound	Ki [1] [µM]	Ki [2] [nM]	Ki [3] [nM]	Ki [4] [nM]	Ki [5] [nM]	Anticoagulation time ([6]; 4° C., concentration in the blood 500 μM) [h]	Anticoagulation time [6, 10]	Anticoagulation time ([6]; 25° C., concentration in the blood 50 μM, listed as CJ-Fxa) [h]	Anticoagulation time [6, 11] [h]	induced aggregation relative to the initial value [7]	thrombocytes showing normal propagation on plastic object carriers [8]	suppression of thrombin formation after kaolin activation [9]
N=C(N)NCCC[C@@H](NS(=O)(=O)Cc1ccccc1)C(=O)N1CCC[C@H]1C(=O)NCc1ccc(C(=N)N)cc1 [BAPA′, benzylsulphonyl-D-arginyl-prolyl-4-amidinobenzylamide]	0.83	27	130									
N=C(N)NCCC[C@@H](NS(=O)(=O)Cc1ccccc1)C(=O)NCC(=O)NCc1ccc(C(=N)N)cc1 [CJ-FXa, benzylsulphonyl-D-arginyl-glycyl-4-amidinobenzylamide]	9.6	800	350	3.5	84	>48	approx. 24 h	12 to 24	>48			
CC(=N)N1CC[C@H](Oc2ccc([C@H](Cc3ccc4ccc(C(=N)N)cc4c3)C(=O)O)cc2)C1 [DX-9065a]	92	2300	340		530		5 to 7 h		7 to 12			
O=C(O)CC(O)(CC(=O)O)C(=O)O [citrate, trisodium citrate]										20 to 30 % of the initial value	less than 10%	
benzylsulphonyl-D-seryl-carbobenzoxylsyl-4-amidinobenzylamide [CJ-PK]	3.8	250	12000	2900	3.5							suppress thrombin formation effectively
